Data on 20 compounds can be found in ChEMBL document CHEMBL4219211, “Design and discovery of thioether and nicotinamide containing sorafenib analogues as multikinase inhibitors targeting B-Raf, B-RafV600E and VEGFR-2” (Bioorg Med Chem, 2018).

The source made the active and inactive calls. The calls are words filed in the database; no cut-off is given here. Bounds are passed on as bounds.

In experiment [1] the target is Vascular endothelial growth factor receptor 2 (Homo sapiens, UniProt P35968). Description: Inhibition of VEGFR2 (unknown origin) using FAM-labelled peptide as substrate pretreated for 10 mins followed by substrate addition measured after 30 mins by caliper mobility shift assay.
The target in experiment [2] is Serine/threonine-protein kinase B-raf (Homo sapiens, UniProt P15056). As to the kind of experiment: Inhibition of B-Raf (unknown origin) using MEK1 as substrate measured after 2 hrs by ELISA.
A further experiment has as its system HCT-116. Description: cells. The conditions noted are these: Homo sapiens, HCT-116, 48 h.
Experiment [3] concerns the target Serine/threonine-protein kinase B-raf (Homo sapiens, UniProt P15056, V600E). Description: Inhibition of B-Raf V600E mutant (unknown origin) using MEK1 as substrate measured after 2 hrs by ELISA. In general terms: In an ELISA, binding on a coated surface is turned into a signal by an enzyme label.
The subject of another experiment is B16-BL6. Description: cells. The following applies: Mus musculus, B16-BL6, 48 h.
Experiment [4] concerns HUVEC. As to the kind of experiment: Antiangiogenic activity against HUVEC assessed as reduction in tube formation at 0.05 uM after 6 hrs by matrigel based phase contrast microscopic analysis. The experiment is classed as functional, Homo sapiens. Further details: scale not given: the % may be the effect or the level left.
Experiment [5] concerns the target Mast/stem cell growth factor receptor Kit (Homo sapiens, UniProt P10721). Description: Inhibition of c-KIT (unknown origin).
The target of experiment [6] is T1, Receptor-type tyrosine-protein kinase FLT3 (Homo sapiens, UniProt P36888).
T1 sequence (P36888 whole entry): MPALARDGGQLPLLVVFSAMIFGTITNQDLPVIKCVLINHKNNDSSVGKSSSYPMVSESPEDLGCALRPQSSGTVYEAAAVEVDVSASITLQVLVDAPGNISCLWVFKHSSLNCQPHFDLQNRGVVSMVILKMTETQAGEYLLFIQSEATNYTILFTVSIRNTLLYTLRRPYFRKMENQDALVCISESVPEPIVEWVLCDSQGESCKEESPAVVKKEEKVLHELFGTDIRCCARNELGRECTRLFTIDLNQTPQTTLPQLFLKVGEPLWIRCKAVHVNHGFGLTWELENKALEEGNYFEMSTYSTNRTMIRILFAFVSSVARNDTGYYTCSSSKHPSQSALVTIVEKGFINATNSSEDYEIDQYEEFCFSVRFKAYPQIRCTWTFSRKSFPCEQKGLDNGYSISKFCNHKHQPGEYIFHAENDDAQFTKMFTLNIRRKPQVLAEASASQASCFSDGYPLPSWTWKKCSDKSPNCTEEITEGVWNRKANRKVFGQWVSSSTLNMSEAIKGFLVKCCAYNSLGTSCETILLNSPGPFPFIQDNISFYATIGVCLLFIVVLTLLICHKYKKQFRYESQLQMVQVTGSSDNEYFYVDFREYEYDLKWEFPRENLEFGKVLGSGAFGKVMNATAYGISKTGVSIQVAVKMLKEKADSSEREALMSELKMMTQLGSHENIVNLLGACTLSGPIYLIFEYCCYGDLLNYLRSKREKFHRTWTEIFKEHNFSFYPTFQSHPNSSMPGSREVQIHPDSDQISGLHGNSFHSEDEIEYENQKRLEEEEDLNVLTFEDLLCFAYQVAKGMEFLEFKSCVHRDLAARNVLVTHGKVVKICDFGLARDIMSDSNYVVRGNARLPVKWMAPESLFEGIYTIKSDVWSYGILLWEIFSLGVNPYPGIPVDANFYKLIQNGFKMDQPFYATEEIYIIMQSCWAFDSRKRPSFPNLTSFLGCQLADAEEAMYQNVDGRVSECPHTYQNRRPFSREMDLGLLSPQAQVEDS
Description: Inhibition of FLT3 (unknown origin).

Experiment [7] concerns the target Epidermal growth factor receptor (Homo sapiens, UniProt P00533). As to the kind of experiment: Inhibition of EGFR (unknown origin).
Experiment [8] relates to HUVEC. Description: Antiangiogenic activity against HUVEC assessed as reduction in tube formation at 0.1 uM after 6 hrs by matrigel based phase contrast microscopic analysis. Further details: scale not given: the % may be the effect or the level left. The format is functional, Homo sapiens.

Vascular endothelial growth factor receptor 2, sequence (P35968 whole entry): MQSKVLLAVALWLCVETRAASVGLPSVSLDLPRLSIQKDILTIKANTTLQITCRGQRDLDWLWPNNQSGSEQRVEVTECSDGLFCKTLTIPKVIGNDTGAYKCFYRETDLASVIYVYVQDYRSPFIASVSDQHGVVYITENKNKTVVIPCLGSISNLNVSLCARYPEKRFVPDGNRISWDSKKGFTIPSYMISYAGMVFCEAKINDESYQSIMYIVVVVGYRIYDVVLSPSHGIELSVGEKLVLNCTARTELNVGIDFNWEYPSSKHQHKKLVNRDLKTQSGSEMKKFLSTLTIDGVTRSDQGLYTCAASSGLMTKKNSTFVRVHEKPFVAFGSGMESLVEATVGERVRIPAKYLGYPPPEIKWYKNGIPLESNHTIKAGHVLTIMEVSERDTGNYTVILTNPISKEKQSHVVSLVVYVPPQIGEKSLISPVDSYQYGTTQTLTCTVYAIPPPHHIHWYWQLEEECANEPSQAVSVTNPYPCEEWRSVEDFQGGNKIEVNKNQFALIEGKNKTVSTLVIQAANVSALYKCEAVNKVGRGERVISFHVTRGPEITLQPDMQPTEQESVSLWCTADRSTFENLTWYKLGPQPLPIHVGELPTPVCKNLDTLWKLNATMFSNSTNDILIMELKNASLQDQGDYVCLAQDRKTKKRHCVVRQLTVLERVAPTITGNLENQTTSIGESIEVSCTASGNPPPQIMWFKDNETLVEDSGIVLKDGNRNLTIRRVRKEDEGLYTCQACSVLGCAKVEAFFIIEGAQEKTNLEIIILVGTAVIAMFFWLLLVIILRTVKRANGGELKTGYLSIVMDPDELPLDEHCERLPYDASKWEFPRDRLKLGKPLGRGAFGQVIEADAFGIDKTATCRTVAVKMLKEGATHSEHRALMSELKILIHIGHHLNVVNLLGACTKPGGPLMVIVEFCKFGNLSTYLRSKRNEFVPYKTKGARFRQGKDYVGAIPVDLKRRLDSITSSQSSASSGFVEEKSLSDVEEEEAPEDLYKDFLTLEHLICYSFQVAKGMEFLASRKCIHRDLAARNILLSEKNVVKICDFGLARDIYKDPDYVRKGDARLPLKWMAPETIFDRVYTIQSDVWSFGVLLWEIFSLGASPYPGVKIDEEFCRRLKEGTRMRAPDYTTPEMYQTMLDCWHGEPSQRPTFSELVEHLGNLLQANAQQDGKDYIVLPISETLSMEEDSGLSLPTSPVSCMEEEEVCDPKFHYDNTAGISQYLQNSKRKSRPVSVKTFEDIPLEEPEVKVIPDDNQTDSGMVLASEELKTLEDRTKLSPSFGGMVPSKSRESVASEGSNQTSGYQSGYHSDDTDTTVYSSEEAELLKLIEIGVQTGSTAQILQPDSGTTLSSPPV
Serine/threonine-protein kinase B-raf (Homo sapiens, UniProt P15056), sequence (P15056 whole entry): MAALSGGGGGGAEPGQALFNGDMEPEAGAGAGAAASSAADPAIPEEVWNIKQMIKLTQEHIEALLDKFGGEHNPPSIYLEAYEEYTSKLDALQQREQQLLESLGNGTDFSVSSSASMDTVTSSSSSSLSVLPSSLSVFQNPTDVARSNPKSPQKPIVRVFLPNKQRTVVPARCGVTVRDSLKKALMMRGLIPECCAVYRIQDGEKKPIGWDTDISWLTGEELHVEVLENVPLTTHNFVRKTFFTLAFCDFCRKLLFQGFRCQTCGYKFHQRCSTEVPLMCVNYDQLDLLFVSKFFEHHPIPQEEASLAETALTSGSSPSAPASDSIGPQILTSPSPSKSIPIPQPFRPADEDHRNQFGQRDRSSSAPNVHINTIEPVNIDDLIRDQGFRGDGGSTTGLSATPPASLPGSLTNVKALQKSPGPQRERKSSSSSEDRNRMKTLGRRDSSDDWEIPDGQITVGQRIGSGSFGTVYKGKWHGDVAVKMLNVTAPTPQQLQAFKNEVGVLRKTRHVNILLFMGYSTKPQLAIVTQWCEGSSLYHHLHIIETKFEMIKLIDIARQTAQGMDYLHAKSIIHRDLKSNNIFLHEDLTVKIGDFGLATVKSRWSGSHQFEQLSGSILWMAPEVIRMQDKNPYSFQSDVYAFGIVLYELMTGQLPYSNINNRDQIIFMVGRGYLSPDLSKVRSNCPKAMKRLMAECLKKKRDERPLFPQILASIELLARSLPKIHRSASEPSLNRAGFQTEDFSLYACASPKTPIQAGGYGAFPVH
Serine/threonine-protein kinase B-raf (Homo sapiens, UniProt P15056, V600E), sequence (P15056 2-766 V600E limits assumed): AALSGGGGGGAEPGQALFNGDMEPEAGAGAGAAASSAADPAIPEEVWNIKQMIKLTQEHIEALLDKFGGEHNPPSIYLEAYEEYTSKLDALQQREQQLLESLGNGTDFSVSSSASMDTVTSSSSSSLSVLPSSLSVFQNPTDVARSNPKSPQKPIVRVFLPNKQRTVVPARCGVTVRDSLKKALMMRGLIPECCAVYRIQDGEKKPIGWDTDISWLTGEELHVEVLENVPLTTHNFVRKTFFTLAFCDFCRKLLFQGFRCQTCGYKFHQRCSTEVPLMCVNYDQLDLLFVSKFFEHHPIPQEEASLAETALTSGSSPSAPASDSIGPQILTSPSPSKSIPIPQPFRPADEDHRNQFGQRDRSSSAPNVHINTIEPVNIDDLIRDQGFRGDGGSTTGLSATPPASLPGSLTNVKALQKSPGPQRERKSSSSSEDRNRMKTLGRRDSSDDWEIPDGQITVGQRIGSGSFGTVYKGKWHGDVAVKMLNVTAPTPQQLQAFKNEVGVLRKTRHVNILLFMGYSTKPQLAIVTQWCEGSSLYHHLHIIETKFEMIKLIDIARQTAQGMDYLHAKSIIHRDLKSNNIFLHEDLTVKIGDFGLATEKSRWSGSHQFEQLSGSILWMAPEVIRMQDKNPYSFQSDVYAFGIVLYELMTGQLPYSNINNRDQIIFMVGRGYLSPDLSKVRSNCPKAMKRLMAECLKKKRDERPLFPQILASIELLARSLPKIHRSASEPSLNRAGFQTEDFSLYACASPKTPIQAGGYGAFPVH
Epidermal growth factor receptor, sequence (P00533 whole entry): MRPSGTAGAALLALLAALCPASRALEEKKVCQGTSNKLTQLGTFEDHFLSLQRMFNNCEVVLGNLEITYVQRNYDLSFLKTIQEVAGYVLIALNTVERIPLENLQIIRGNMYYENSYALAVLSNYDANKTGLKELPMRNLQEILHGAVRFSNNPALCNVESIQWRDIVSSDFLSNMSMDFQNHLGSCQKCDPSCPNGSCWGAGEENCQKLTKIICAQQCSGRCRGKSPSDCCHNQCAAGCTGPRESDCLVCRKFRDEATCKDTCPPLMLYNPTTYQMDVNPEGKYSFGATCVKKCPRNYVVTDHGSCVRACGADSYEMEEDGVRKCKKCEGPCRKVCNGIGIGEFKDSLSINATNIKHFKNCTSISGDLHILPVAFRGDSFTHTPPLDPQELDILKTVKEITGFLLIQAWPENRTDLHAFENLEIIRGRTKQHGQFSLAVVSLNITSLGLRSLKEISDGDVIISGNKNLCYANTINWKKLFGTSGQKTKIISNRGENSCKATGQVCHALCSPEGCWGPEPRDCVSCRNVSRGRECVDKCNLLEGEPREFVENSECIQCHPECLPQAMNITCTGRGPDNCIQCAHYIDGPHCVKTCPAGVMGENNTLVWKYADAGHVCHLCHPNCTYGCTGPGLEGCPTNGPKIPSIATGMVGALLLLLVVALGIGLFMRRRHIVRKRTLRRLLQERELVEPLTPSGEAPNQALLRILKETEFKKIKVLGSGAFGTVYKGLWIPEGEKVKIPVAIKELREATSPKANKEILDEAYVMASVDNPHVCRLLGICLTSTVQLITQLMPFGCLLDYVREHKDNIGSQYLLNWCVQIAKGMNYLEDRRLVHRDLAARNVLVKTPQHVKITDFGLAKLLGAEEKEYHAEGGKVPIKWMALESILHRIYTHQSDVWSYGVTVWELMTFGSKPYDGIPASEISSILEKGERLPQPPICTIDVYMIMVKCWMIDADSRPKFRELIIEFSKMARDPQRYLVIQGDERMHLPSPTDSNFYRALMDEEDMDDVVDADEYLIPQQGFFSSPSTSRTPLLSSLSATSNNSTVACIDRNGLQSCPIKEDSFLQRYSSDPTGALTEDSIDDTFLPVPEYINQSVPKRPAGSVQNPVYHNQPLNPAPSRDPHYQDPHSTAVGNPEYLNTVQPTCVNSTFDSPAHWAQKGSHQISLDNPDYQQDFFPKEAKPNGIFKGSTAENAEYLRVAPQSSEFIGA
Mast/stem cell growth factor receptor Kit, sequence (P10721 whole entry): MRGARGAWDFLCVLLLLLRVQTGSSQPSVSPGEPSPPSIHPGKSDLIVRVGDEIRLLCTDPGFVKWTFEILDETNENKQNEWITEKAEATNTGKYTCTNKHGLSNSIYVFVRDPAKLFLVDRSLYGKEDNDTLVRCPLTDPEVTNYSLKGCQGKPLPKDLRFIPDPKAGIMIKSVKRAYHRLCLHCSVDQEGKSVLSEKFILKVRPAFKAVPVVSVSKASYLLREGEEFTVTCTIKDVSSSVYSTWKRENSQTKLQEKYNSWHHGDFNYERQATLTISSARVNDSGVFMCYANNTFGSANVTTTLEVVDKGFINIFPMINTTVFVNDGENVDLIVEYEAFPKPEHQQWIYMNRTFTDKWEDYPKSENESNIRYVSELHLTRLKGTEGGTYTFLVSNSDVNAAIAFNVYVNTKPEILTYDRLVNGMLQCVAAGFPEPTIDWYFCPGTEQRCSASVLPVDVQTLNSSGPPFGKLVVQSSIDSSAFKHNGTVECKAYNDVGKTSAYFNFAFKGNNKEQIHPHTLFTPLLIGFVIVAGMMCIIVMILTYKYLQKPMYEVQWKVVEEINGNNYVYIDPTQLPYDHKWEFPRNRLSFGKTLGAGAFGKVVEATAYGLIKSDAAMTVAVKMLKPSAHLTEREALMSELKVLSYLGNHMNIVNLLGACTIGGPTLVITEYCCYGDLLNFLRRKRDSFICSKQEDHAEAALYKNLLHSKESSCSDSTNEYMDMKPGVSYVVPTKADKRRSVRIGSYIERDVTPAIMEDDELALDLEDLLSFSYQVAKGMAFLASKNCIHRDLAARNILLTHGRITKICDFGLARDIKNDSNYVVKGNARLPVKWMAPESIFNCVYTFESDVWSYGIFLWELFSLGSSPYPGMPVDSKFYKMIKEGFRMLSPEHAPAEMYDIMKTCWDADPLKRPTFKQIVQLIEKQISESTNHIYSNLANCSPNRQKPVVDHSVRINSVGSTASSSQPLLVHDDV
Description for B16-BL6: Cytotoxicity against mouse B16-BL6 cells after 48 hrs by MTT assay
Description for HCT-116: Cytotoxicity against human HCT116 cells after 48 hrs by MTT assay

Regarding `CNC(=O)c1ccc(Sc2ccc(NC(=S)Nc3ccc(F)c(C(F)(F)F)c3)cc2)nc1`, the IC50 (commonly the point on the concentration scale where inhibition reaches its midpoint) was found to be 74 nM in [1]; 33 nM in experiment [2]; 6370 nM with HCT-116; 45 nM in experiment [3]; 29300 nM in the experiment on B16-BL6.

Consider `CNC(=O)c1ccc(Sc2ccc(NC(=S)Nc3ccc(Cl)cc3)cc2)nc1`, for which the IC50 was found to be 8660 nM in experiment [1]; 2060 nM in experiment [2]; 34500 nM with HCT-116; 1780 nM in experiment [3]; 69300 nM in the experiment on B16-BL6.

In the case of `CNC(=O)c1ccc(Sc2cccc(NC(=S)Nc3ccc(F)c(F)c3)c2)nc1`, the IC50 in [1] stood at 3860 nM; in experiment [2] it was 442 nM; in the experiment with HCT-116, 35100 nM; in experiment [3] it was 539 nM; with B16-BL6 it was 58200 nM.

Consider `CNC(=O)c1ccc(Sc2ccc(NC(=S)Nc3ccc(Cl)c(C(F)(F)F)c3)cc2)nc1`, for which the IC50 was 46 nM in experiment [1]; 27 nM in experiment [2]; 701 nM in experiment [5]; 4900 nM in the experiment with HCT-116; 949 nM in [6]; above 1000 nM in experiment [7]. Also, the IC50 in experiment [3] came out at 28 nM; in the experiment with B16-BL6 it was 23500 nM. Also, the Activity in the experiment with HUVEC [4] is on record as 100%.

In the case of `CNC(=O)c1ccc(Sc2cccc(NC(=S)Nc3cc(C(F)(F)F)cc(C(F)(F)F)c3)c2)nc1`, the half-maximal inhibitory concentration (IC50) was determined as 887 nM in experiment [1]; 158 nM in experiment [2]; 5020 nM in the experiment with HCT-116; 169 nM in experiment [3]; 54200 nM with B16-BL6.

Regarding `CNC(=O)c1ccc(Sc2ccc(NC(=O)Nc3ccc(F)c(C(F)(F)F)c3)cc2)nc1`, the IC50 in [1] was found to be 102 nM; in experiment [2], 48 nM; in the experiment on HCT-116, 5800 nM; in experiment [3], 65 nM; with B16-BL6, 39600 nM.

For the compound `CNC(=O)c1ccc(Sc2cccc(NC(=S)Nc3ccc(Cl)c(C(F)(F)F)c3)c2)nc1`, the concentration for half-maximal inhibition (IC50) in [1] was 63 nM; in [2], 17 nM; in experiment [5], above 1000 nM; with HCT-116, 5180 nM; in [6] it was 781 nM; in experiment [7] it was 596 nM. For the same compound, the IC50 in experiment [3] worked out at 16 nM; with B16-BL6, 19800 nM. Further, the Activity in the experiment on HUVEC [4] came out at 100%.

`CNC(=O)c1ccc(Sc2cccc(NC(=S)Nc3ccc(Br)c(C(F)(F)F)c3)c2)nc1`: the values for the IC50 (in [1]; in the experiment with HCT-116; in the experiment on B16-BL6) were 133 nM, 16500 nM and above 100000 nM, respectively.

Regarding `CNC(=O)c1ccc(Sc2ccc(NC(=O)Nc3cc(C(F)(F)F)cc(C(F)(F)F)c3)cc2)nc1`, the IC50 in [1] is 508 nM; in [2], 93 nM; in the experiment with HCT-116, 7090 nM; in [3], 196 nM; with B16-BL6, 45200 nM.

On to `CNC(=O)c1ccc(Sc2cccc(NC(=S)Nc3ccc(F)c(Cl)c3)c2)nc1`, for which the IC50 in [1] was 4020 nM; in experiment [2], 280 nM; in the experiment with HCT-116 it was 17300 nM; in [3], 392 nM; in the experiment with B16-BL6, above 100000 nM.

Consider `CNC(=O)c1ccc(Sc2ccc(NC(=S)Nc3cccc(C(F)(F)F)c3)cc2)nc1`, for which the IC50 is above 10000 nM in experiment [1]; 503 nM in experiment [2]; 25900 nM in the experiment on HCT-116; 571 nM in experiment [3]; 53100 nM with B16-BL6.

As for `CNC(=O)c1ccc(Sc2ccc(NC(=S)Nc3ccc(OC(F)(F)F)cc3)cc2)nc1`, the IC50 in experiment [1] was above 10000 nM; in experiment [2] it was 9870 nM; in the experiment on HCT-116 it was above 100000 nM; in experiment [3] it was above 10000 nM; in the experiment with B16-BL6, above 100000 nM.

In the case of `CNC(=O)c1ccc(Sc2cccc(NC(=S)Nc3ccc(OC(F)(F)F)cc3)c2)nc1`, the IC50 in [1] was above 10000 nM; in [2], 5850 nM; in the experiment with HCT-116, 24500 nM; in [3], 7480 nM; in the experiment with B16-BL6, 91000 nM.

With `CNC(=O)c1ccc(Sc2ccc(NC(=S)Nc3ccc(F)c(F)c3)cc2)nc1`, the IC50 in experiment [1] was above 10000 nM; in [2], 810 nM; with HCT-116, 22200 nM; in experiment [3] it was 892 nM; in the experiment on B16-BL6, 52600 nM.

Regarding `CNC(=O)c1ccc(Sc2ccc(NC(=O)Nc3ccc(Cl)c(C(F)(F)F)c3)cc2)nc1`, the IC50 was 84 nM in experiment [1]; 21 nM in experiment [2]; 535 nM in [5]; 5290 nM with HCT-116; 67 nM in [6]; above 1000 nM in experiment [7]. The IC50 in experiment [3] was found to be 29 nM; in the experiment with B16-BL6, 24600 nM. Besides, in the experiment on HUVEC [4], the Activity is on record as 100%.

As for `CNC(=O)c1ccc(Sc2cccc(NC(=S)Nc3ccc(Cl)cc3)c2)nc1`, the IC50 is 5990 nM in experiment [1]; 791 nM in experiment [2]; 39500 nM in the experiment with HCT-116; 857 nM in experiment [3]; 67500 nM with B16-BL6.

On to `CNC(=O)c1ccc(Sc2cccc(NC(=S)Nc3cccc(C(F)(F)F)c3)c2)nc1`, for which the IC50 in [1] was determined as 6910 nM; in [2], 973 nM; with HCT-116, 16100 nM; in [3] it was 1270 nM; in the experiment on B16-BL6 it was 19200 nM.

As to `CNC(=O)c1cc(Oc2ccc(NC(=O)Nc3ccc(Cl)c(C(F)(F)F)c3)cc2)ccn1` [SORAFENIB], in the experiment on HUVEC [4] (Homo sapiens), the outcome was Active. For the same compound, the Activity with HUVEC [8] came out at 100%. In the experiment on B16-BL6, this compound registered an IC50 of 36500 nM.

Regarding `CNC(=O)c1ccc(Sc2ccc(NC(=S)Nc3cc(C(F)(F)F)cc(C(F)(F)F)c3)cc2)nc1`, the IC50 is 277 nM in experiment [1], 16600 nM in the experiment with HCT-116 and 36100 nM in the experiment with B16-BL6.

Take `CNC(=O)c1ccc(Sc2cccc(NC(=S)Nc3ccc(F)c(C(F)(F)F)c3)c2)nc1`: the IC50 was 61 nM in [1]; 69 nM in experiment [2]; 18200 nM in the experiment with HCT-116; 77 nM in experiment [3]; 42400 nM in the experiment on B16-BL6.
